Tests used:
[1] = target: T1, K-Ras G12C mutant protein (Homo sapiens, UniProt P01116, G12C); assay: K-Ras G12C HTRF assay; format: biochemical; settings: Table 1; unit or assay not given; several values in one cell
T1 construct: K-Ras G12C (residues 2-188) and SOS1 (residues 564-1049) had N-terminal 6-His; made in house; host or cells: E. coli
Procedure: In the above definition of R^2, the electrophilic moiety that is capable of forming a covalent bond with a cysteine residue is determined via K-Ras G12C-alkylation studies and Homogeneous Time Resolved Fluorescence (HTRF) assays. The G12C mutation of the K-Ras gene is a change in amino acid from glycine to cysteine at the 12th amino acid. The compounds according to the present disclosure were discovered using the HTRF assay and the K-Ras G12C-alkylation assay, as further detailed elsewhere herein below, and then NMR spectroscopy was later used to validate the specificity with which the molecule was attaching to G12C.

K-Ras G12C [2] = target: T2, K-Ras G12C (Homo sapiens, UniProt P01116, G12C); assay: Western blot assay for in cell alkylation of K-Ras G12C (HCC1171 cells); format: cell-based; set-up: endogenous in cells; host or cells: HCC1171; settings: 18 hours at 37° C., 7 point dose response
Outline: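 HCC1171 cells exposed to compounds for 18 h at 37° C, lysed, and analysed by SDS-PAGE/western blot with anti-K-Ras antibody and fluorescent secondary. Alkylated K-Ras separated by band shift; % alkylation = FI(alkylated)/(FI(alkylated)+FI(unalkylated))×100, IC50 from 7-point dose response.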
Target sequence in this assay (P01116 1-188 isoform P01116-2 G12C): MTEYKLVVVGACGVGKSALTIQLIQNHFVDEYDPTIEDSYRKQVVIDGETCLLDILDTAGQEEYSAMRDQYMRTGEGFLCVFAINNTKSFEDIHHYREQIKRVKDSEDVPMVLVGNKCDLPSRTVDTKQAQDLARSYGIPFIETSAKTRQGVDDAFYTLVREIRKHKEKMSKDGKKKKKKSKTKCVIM

K-Ras G12C [3] = target: T2, K-Ras G12C; assay: K-Ras G12C, SOS1, Raf RBD HTRF assay for inhibition of GTP exchange; format: biochemical; set-up: K-Ras G12C (residues 2-188) and SOS1 (residues 564-1049) had N-terminal 6-His; made in house; host or cells: E. coli; settings: 18 hours preincubation with K-Ras G12C at room temperature; SOS1-mediated GTP exchange
Outline: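 After 18 h at room temperature with compound, SOS1 (1.25 nM final) started exchange to GTP (150 μM final). C-Raf RBD, Tb-anti-FLAG and D2-anti-his (50, 1 and 12.5 nM) were then added. The 665/615 nm HTRF ratio was read after 2 h; buffer was HEPES/NaCl, 1 mM MgCl2, BSA, Tween-20 and DTT.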
Target sequence in this assay (P01116 2-188 isoform P01116-2 G12C): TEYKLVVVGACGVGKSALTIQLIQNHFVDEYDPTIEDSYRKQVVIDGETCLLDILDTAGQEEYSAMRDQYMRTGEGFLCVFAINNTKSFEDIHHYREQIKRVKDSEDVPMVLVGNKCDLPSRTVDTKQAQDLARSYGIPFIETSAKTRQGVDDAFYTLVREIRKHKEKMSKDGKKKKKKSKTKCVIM

T1 sequence (P01116 2-188 isoform P01116-2 G12C): as above

SMILES | IC50 [1] [nM] | EC50 (K-Ras G12C [2]) [nM] | IC50 (K-Ras G12C [3]) [nM]
C=CC(=O)N1CCN(c2ncnc3c2CC(C)C(c2nc(N)cc(C)c2C(F)(F)F)C3)CC1 (single isomer, unassigned) [Example 1, 1-(4-(7-(6-amino-4-methyl-3-(trifluoromethyl)pyridin-2-yl)-6-methyl-5,6,7,8-tetrahydroquinazolin-4-yl)piperazin-1-yl)prop-2-en-1-one] | > 50000 | – | –
C=CC(=O)N1CCC(C#N)(c2nc(OCC3CCCN3C)nc3c2CCC(c2cc(O)cc4ccccc24)C3)CC1 (stereo not shown) [Example 7, 1-acryloyl-4-(7-(3-hydroxynaphthalen-1-yl)-2-((1-methylpyrrolidin-2-yl)methoxy)-5,6,7,8-tetrahydroquinazolin-4-yl)piperidine-4-carbonitrile] | 87 | – | –
COc1ccc(CN(Cc2ccc(OC)cc2)c2cc(C)c(I)c(C3Cc4nc(OCC5CCCN5C)nc(N5CCN(C(=O)OC(C)(C)C)CC5C)c4CC3C)c2F)cc1 (stereo not shown) [Example 14, tert-butyl 4-(7-(3-(bis(4-methoxybenzyl)amino)-2-fluoro-6-iodo-5-methylphenyl)-6-methyl-2-((1-methylpyrrolidin-2-yl)methoxy)-5,6,7,8-tetrahydroquinazolin-4-yl)-3-methylpiperazine-1-carboxylate] | > 50000 | – | –
C=CC(=O)N1CCN(c2nc(OCC3CCCN3C)nc3c2CC(C)C(c2c(C)ccc4[nH]ncc24)C3)CC1 (stereo not shown) [Example 18, 1-(4-(6-methyl-7-(5-methyl-1H-indazol-4-yl)-2-((1-methylpyrrolidin-2-yl)methoxy)-5,6,7,8-tetrahydroquinazolin-4-yl)piperazin-1-yl)prop-2-en-1-one] | 24 | – | –
C=CC(=O)N1CCN(c2nc(OCC3CCCN3C)nc3c2CCC2(CCCCC2)C3)CC1 (stereo not shown) [Example 25, 1-(4-(2′-((1-methylpyrrolidin-2-yl)methoxy)-5′,8′-dihydro-6′H-spiro[cyclohexane-1,7′-quinazolin]-4′-yl)piperazin-1-yl)prop-2-en-1-one] | 5400 | – | –
C=CC(=O)N1CCN(c2nc(OCC3CCCN3C)nc3c2CCCC3)CC1 (stereo not shown) [Example 45, 1-(4-(2-((1-methylpyrrolidin-2-yl)methoxy)-5,6,7,8-tetrahydroquinazolin-4-yl)piperazin-1-yl)prop-2-en-1-one] | > 50000 | – | –
CN1CCCC1COc1nc2c(c(N3CCN(C(=O)/C=C/CNC45CC(C4)C5)C(CC#N)C3)n1)CCC(c1cccc3ccccc13)C2 (stereo not shown) [Example 48, (E)-2-(1-(4-(bicyclo[1.1.1]pentan-1-ylamino)but-2-enoyl)-4-(2-((1-methylpyrrolidin-2-yl)methoxy)-7-(naphthalen-1-yl)-5,6,7,8-tetrahydroquinazolin-4-yl)piperazin-2-yl)acetonitrile] | 11 | – | –
C=CC(=O)N1CCN(c2nc(OCC3CCCN3C)nc3c2CCC(c2cc(O)cc4ccccc24)C3)CC1 (stereo not shown) [Example 49, 1-(4-(7-(3-hydroxynaphthalen-1-yl)-2-((1-methylpyrrolidin-2-yl)methoxy)-5,6,7,8-tetrahydroquinazolin-4-yl)piperazin-1-yl)prop-2-en-1-one] | 23 | – | –
C=CC(=O)N1CCN(c2nc(OC[C@@H]3CCCN3C)nc3c2CCC(c2cc(O)cc4ccccc24)C3)CC1 (stereo partly drawn) [Example 49a, 1-[4-[7-(3-hydroxy-1-naphthyl)-2-[[(2S)-1-methylpyrrolidin-2-yl]methoxy]-5,6,7,8-tetrahydroquinazolin-4-yl]piperazin-1-yl]prop-2-en-1-one] | – | 170 | 23
C=CC(=O)Oc1cc(C2CCc3c(nc(OCC4CCCN4C)nc3N3CCN(C(=O)C=C)CC3)C2)c2ccccc2c1 (stereo not shown) [Example 50, 4-(4-(4-acryloylpiperazin-1-yl)-2-((1-methylpyrrolidin-2-yl)methoxy)-5,6,7,8-tetrahydroquinazolin-7-yl)naphthalen-2-yl acrylate] | 160 | – | –
C=CC(=O)Oc1cc(C2CCc3c(nc(OC[C@@H]4CCCN4C)nc3N3CCN(C(=O)C=C)CC3)C2)c2ccccc2c1 (stereo partly drawn) [Example 50a, 4-(4-(4-acryloylpiperazin-1-yl)-2-(((S)-1-methylpyrrolidin-2-yl)methoxy)-5,6,7,8-tetrahydroquinazolin-7-yl)naphthalen-2-yl acrylate] | – | 170 | 160
C=CC(=O)N1CCN(c2nc(OCCC3CCCN3C)nc3c2CCC(c2cc(O)cc4ccccc24)C3)CC1 (stereo not shown) [Example 52, 1-(4-(7-(3-hydroxynaphthalen-1-yl)-2-(2-(1-methylpyrrolidin-2-yl)ethoxy)-5,6,7,8-tetrahydroquinazolin-4-yl)piperazin-1-yl)prop-2-en-1-one] | 51 | – | –
C=CC(=O)N1CCN(c2nc(OCC[C@@H]3CCCN3C)nc3c2CCC(c2cc(O)cc4ccccc24)C3)CC1 (stereo partly drawn) [Example 52a, 1-(4-(7-(3-hydroxynaphthalen-1-yl)-2-(2-((S)-1-methylpyrrolidin-2-yl)ethoxy)-5,6,7,8-tetrahydroquinazolin-4-yl)piperazin-1-yl)prop-2-en-1-one] | – | 990 | 51
C=CC(=O)N1CCN(c2nc(OCCCN3CCOCC3)nc3c2CCC(c2cc(O)cc4ccccc24)C3)C(C)C1 (stereo not shown) [Example 53, 1-(4-(7-(3-hydroxynaphthalen-1-yl)-2-(3-morpholinopropoxy)-5,6,7,8-tetrahydroquinazolin-4-yl)-3-methylpiperazin-1-yl)prop-2-en-1-one] | 22 | – | –
C=CC(=O)N1CCN(c2nc(OCCCN3CCOCC3)nc3c2CCC(c2cc(O)cc4ccccc24)C3)[C@@H](C)C1 (stereo partly drawn) [Example 53a, 1-((3S)-4-(7-(3-hydroxynaphthalen-1-yl)-2-(3-morpholinopropoxy)-5,6,7,8-tetrahydroquinazolin-4-yl)-3-methylpiperazin-1-yl)prop-2-en-1-one] | – | 230 | 22
C=CC(=O)N1CCN(c2nc(OCc3cn(C)cn3)nc3c2CCC(c2cc(O)cc4ccccc24)C3)C(C)C1 (stereo not shown) [Example 54, 1-(4-(7-(3-hydroxynaphthalen-1-yl)-2-((1-methyl-1H-imidazol-4-yl)methoxy)-5,6,7,8-tetrahydroquinazolin-4-yl)-3-methylpiperazin-1-yl)prop-2-en-1-one] | 470 | – | –
C=CC(=O)N1CCN(c2nc(OCC3CCC(=O)N3)nc3c2CCC(c2cc(O)cc4ccccc24)C3)C(C)C1 (stereo not shown) [Example 55, 5-(((4-(4-acryloyl-2-methylpiperazin-1-yl)-7-(3-hydroxynaphthalen-1-yl)-5,6,7,8-tetrahydroquinazolin-2-yl)oxy)methyl)pyrrolidin-2-one] | 1400 | – | –
C=CC(=O)N1CCN(c2nc(OCC3CCC(=O)N3)nc3c2CCC(c2cc(O)cc4ccccc24)C3)[C@@H](C)C1 (stereo partly drawn) [Example 55a, 5-(((4-((S)-4-acryloyl-2-methylpiperazin-1-yl)-7-(3-hydroxynaphthalen-1-yl)-5,6,7,8-tetrahydroquinazolin-2-yl)oxy)methyl)pyrrolidin-2-one] | – | 6700 | 1400
C=CC(=O)N1CC(C)N(c2nc(OCC3CCCN3C)nc3c2CCC(c2cc(O)cc4ccccc24)C3)C(C)C1 (stereo not shown) [Example 56, 1-(4-(7-(3-hydroxynaphthalen-1-yl)-2-((1-methylpyrrolidin-2-yl)methoxy)-5,6,7,8-tetrahydroquinazolin-4-yl)-3,5-dimethylpiperazin-1-yl)prop-2-en-1-one] | 73 | – | –
C=CC(=O)N1C[C@H](C)N(c2nc(OC[C@@H]3CCCN3C)nc3c2CCC(c2cc(O)cc4ccccc24)C3)[C@@H](C)C1 (stereo partly drawn) [Example 56a, 1-((3S,5S)-4-(7-(3-hydroxynaphthalen-1-yl)-2-(((S)-1-methylpyrrolidin-2-yl)methoxy)-5,6,7,8-tetrahydroquinazolin-4-yl)-3,5-dimethylpiperazin-1-yl)prop-2-en-1-one] | – | 620 | 73
C=CC(=O)N1CCN(c2nc(OC[C@@H]3CCCN3C)nc3c2CCC(c2cc(O)cc4ccccc24)C3)CC1CC#N (stereo partly drawn) [Example 58a, 2-(1-acryloyl-4-(7-(3-hydroxynaphthalen-1-yl)-2-(((S)-1-methylpyrrolidin-2-yl)methoxy)-5,6,7,8-tetrahydroquinazolin-4-yl)piperazin-2-yl)acetonitrile] | – | 10 | 28
C=CC(=O)Oc1cc(C2CCc3c(nc(OCC4CCCN4C)nc3N3CCN(C(=O)C=C)C(CC#N)C3)C2)c2ccccc2c1 (stereo not shown) [Example 59, 4-(4-(4-acryloyl-3-(cyanomethyl)piperazin-1-yl)-2-((1-methylpyrrolidin-2-yl)methoxy)-5,6,7,8-tetrahydroquinazolin-7-yl)naphthalen-2-yl acrylate] | 250 | – | –
C=CC(=O)Oc1cc(C2CCc3c(nc(OC[C@@H]4CCCN4C)nc3N3CCN(C(=O)C=C)C(CC#N)C3)C2)c2ccccc2c1 (stereo partly drawn) [Example 59a, 4-(4-(4-acryloyl-3-(cyanomethyl)piperazin-1-yl)-2-(((S)-1-methylpyrrolidin-2-yl)methoxy)-5,6,7,8-tetrahydroquinazolin-7-yl)naphthalen-2-yl acrylate] | – | 29 | 250

Reference: patent US11760744B2, “Fused ring compounds” (Genentech, Inc., priority 2018, dated 2023)
